Measured values reported in patent publication US7183320B2, “Benzoylsulfonamides and sulfonylbenzamidines for use as antitumour agents” (Eli Lilly and Company, priority 2002, dated 2007).

Test system: HCT116 colon carcinoma cells
Assay: HCT116 colon carcinoma cell growth inhibition (WST-1, 72 hr)
Format: cell-based, human
Conditions: 72 hr exposure
Method: HCT116 Colon Carcinoma Cell Growth Inhibition
HCT116 colon carcinoma cells were grown monolayer culture in RPMI 1640 medium supplemented with 10% fetal bovine serum and 1% penicillin-streptomycin (GibcoBRL, Grand Island, N.Y.). HCT116 cells in exponential growth phase were exposed to various concentrations of the test compounds at 37° C. for 72 hr in 5% carbon dioxide/air. After exposure to the agent, the cells were washed with 0.9% phosphate buffered saline. Growth inhibition was determined using WST-1 cell proliferation reagent as described above. The results are expressed as the growth fraction of treated cells compared with control cultures. Representative compounds of the present invention were tested for efficacy against the human colon HCT116 tumor cells.

SMILES	IC50 [µM]
COc1ccccc1-c1ccc(S(=O)(=O)NC(=O)c2ccc(Cl)cc2Cl)cc1 [Example 122, N-[2,4-dichlorobenzoyl]-4-(1-methoxy-phen-2-yl)phenylsulfonamide]	25.8
COC(=O)c1ccc(-c2ccc(S(=O)(=O)NC(=O)c3ccc(Cl)cc3Cl)cc2)cc1 [Example 123, N-[2,4-dichlorobenzoyl]-4-(1-methoxycarbonyl-phen-4-yl)phenylsulfonamide]	37.7

Same assay, conditions: Homo sapiens, HCT-116, 72 hr exposure

SMILES	IC50 [µM]
O=C(NS(=O)(=O)c1cccc(C(F)(F)F)c1)c1ccc(Cl)cc1Cl [Example 25, N-[2,4-dichlorobenzoyl]-3-trifluoromethyl-phenylsulfonamide]	9.6
COc1cccc(S(=O)(=O)NC(=O)c2ccc(Cl)cc2Cl)c1 [Example 80, N-[2,4-dichlorobenzoyl]-3-methoxyphenyl-sulfonamide]	12.3
O=C(NS(=O)(=O)c1cccc(Br)c1)c1ccc(Cl)cc1Cl [Example 1, N-[2,4-dichlorobenzoyl]-3-bromophenylsulfonamide]	4.2
N=C(NS(=O)(=O)c1ccc(F)c(Cl)c1)c1ccc(F)c(Cl)c1 [Example 116, N-[3-chloro-4-fluorophenylsulfonyl]-3-chloro-4-fluorobenzamidine]	5.9
COc1ccc(S(=O)(=O)NC(=O)c2ccc(Br)cc2Cl)cc1 [Example 18, N-[2-chloro-4-bromobenzoyl]-4-methoxyphenylsulfonamide]	9.3
COc1cc(C)ccc1S(=O)(=O)NC(=O)c1ccc(Cl)cc1C [Example 44, N-[2-methyl-4-chlorobenzoyl]-2-methoxy-4-methylphenylsulfonamide]	18.7
O=C(NS(=O)(=O)c1ccc(Cl)cc1)c1ccc(Br)cc1Cl [Example 112, N-[2-chloro-4-bromobenzoyl]-4-chlorophenylsulfonamide]	2.8
O=C(NS(=O)(=O)c1ccc(Cl)cc1)c1ccc(Br)cc1Br [Example 6, N-[2,4-dibromobenzoyl]-4-chlorophenylsulfonamide]	4
Cc1ccc(S(=O)(=O)NC(=O)c2ccc(C)cc2C(F)(F)F)cc1 [Example 79, N-[2-trifluoromethyl-4-methylbenzoyl]-4-methylphenyl-sulfonamide]	5.2
Cc1cc(Cl)ccc1C(=O)NS(=O)(=O)c1ccc(F)cc1 [Example 42, N-[2-methyl-4-chlorobenzoyl]-4-fluorophenylsulfonamide]	3.3
O=C(NS(=O)(=O)c1ccc(-c2ccoc2)cc1)c1ccc(Cl)cc1Cl [Example 126, N-[2,4-dichlorobenzoyl]-4-fur-3-yl-phenylsulfonamide]	18.5
COc1c(C)cc(S(=O)(=O)NC(=O)c2ccc(Cl)cc2Cl)cc1C [Example 97, N-[2,4-dichlorobenzoyl]-4-methoxy-3,5-dimethylphenylsulfonamide]	7
O=C(NS(=O)(=O)c1cccc(F)c1)c1ccc(Cl)cc1Cl [Example 26, N-[2,4-dichlorobenzoyl]-3-fluorophenylsulfonamide]	6.1
Cc1cc(Cl)ccc1C(=O)NS(=O)(=O)c1ccc(I)cc1 [Example 56, N-[2-methyl-4-chlorobenzoyl]-4-iodophenylsulfonamide]	16.8
O=C(NS(=O)(=O)c1ccc(Cl)c(Cl)c1)c1ccc(Cl)cc1Cl [Example 92, N-[2,4-dichlorobenzoyl]-3,4-dichlorophenylsulfonamide]	17.4
O=C(NS(=O)(=O)c1ccc(F)cc1)c1ccc([N+](=O)[O-])cc1Cl [Example 101, N-[2-chloro-4-nitrobenzoyl]-4-fluoro-phenylsulfonamide]	12.4
O=C(NS(=O)(=O)c1ccc(I)cc1)c1ccc(Br)cc1Br [Example 38, N-[2,4-dibromobenzoyl]-4-iodophenylsulfonamide]	13.9
COc1ccc(S(=O)(=O)NC(=O)c2ccc(Cl)cc2Cl)cc1 [Example 3, N-[2,4-dichlorobenzoyl]-4-methoxyphenylsulfonamide]	2.5

SMILES	IC50 [µM]
O=C(NS(=O)(=O)c1ccc(O)cc1)c1ccc(Cl)cc1Cl [Example 82, N-[2,4-dichlorobenzoyl]-4-hydroxyphenyl-sulfonamide]	12.4
Cc1cccc(S(=O)(=O)NC(=O)c2ccc(Cl)cc2C)c1 [Example 55, N-[2-methyl-4-chlorobenzoyl]-3-methylphenylsulfonamide]	9.5
COc1ccc(S(=O)(=O)NC(=O)c2ccc([N+](=O)[O-])cc2Cl)cc1 [Example 20, N-[2-chloro-4-nitrobenzoyl]-4-methoxyphenylsulfonamide]	2.4
CCc1ccc(S(=O)(=O)NC(=O)c2ccc(Cl)cc2C)cc1 [Example 70, N-[2-methyl-4-chlorobenzoyl]-4-ethylphenylsulfonamide]	16.9
Cc1ccc(S(=O)(=O)NC(=O)c2ccc(Cl)cc2C)cc1Cl [Example 45, N-[2-methyl-4-chlorobenzoyl]-3-chloro-4-methylphenylsulfonamide]	20.7
Cc1cc(Cl)ccc1C(=O)NS(=O)(=O)c1ccc(C(C)(C)C)cc1 [Example 105, N-[2-methyl-4-chlorobenzoyl]-4-tert-butylphenylsulfonamide]	14.8
N=C(NS(=O)(=O)c1ccc(F)c(Cl)c1)c1ccc(Cl)cc1 [Example 115, N-[3-chloro-4-fluorophenylsulfonyl]-4-chlorobenzamidine]	33.6
CC(C)c1ccc(S(=O)(=O)NC(=O)c2ccc(Cl)cc2Br)cc1 [Example 73, N-[2-bromo-4-chlorobenzoyl]-4-isopropylphenyl-sulfonamide]	8.3
CC(C)c1ccc(S(=O)(=O)NC(=O)c2ccc(C(F)(F)F)cc2C(F)(F)F)cc1 [Example 63, N-[2,4-bis-trifluoromethylbenzoyl]-4-isopropylphenyl-sulfonamide]	24.7
O=C(NS(=O)(=O)c1ccc(Cl)cc1)c1ccc(Cl)cc1Cl [Example 111, N-[2,4-dichlorobenzoyl]-4-chlorophenylsulfonamide]	15
CN(C)c1ccc(S(=O)(=O)NC(=O)c2ccc(Cl)cc2Cl)cc1 [Example 98, N-[2,4-dichlorobenzoyl]-4-dimethylaminophenyl-sulfonamide]	13
O=C(NS(=O)(=O)c1ccc(C(F)(F)F)cc1)c1ccc(Cl)cc1Cl [Example 81, N-[2,4-dichlorobenzoyl]-4-trifluoromethyl-phenylsulfonamide]	11.3
Cc1ccc(S(=O)(=O)NC(=O)c2ccc(Cl)cc2C)cc1 [Example 23, N-[2-methyl-4-chlorobenzoyl]-4-methylphenylsulfonamide]	15.9
COC(=O)c1cc(S(=O)(=O)NC(=O)c2ccc(Br)cc2Br)ccc1OC [Example 34, N-[2,4-dibromobenzoyl]-3-methoxycarbonyl-4-methoxyphenylsulfonamide]	16.5
COc1ccc(S(=O)(=O)NC(=O)c2ccc(C(F)(F)F)cc2C(F)(F)F)cc1 [Example 47, N-[2,4-bis-trifluoromethylbenzoyl]-4-methoxyphenylsulfonamide]	8.7
O=C(NS(=O)(=O)c1ccc(F)c(F)c1)c1ccc(C(F)(F)F)cc1C(F)(F)F [Example 53, N-[2,4-bis-trifluoromethylbenzoyl]-3,4-difluorophenyl-sulfonamide]	11.2
CC(C)c1ccc(S(=O)(=O)NC(=O)c2ccc(Br)cc2Cl)cc1 [Example 64, N-[2-chloro-4-bromobenzoyl]-4-isopropylphenyl-sulfonamide]	18.2
